Experimental data taken from publication PMC4679714, “Influence of a novel, versatile bifunctional chelator on theranostic properties of a minigastrin analogue” (EJNMMI Research, 2015).
Square brackets hold non-standard residues; d marks the D form. Peptide text beside a SMILES is read from it. * marks the point of attachment. X1 = O=C(O)CN1CCN(CC(=O)O)CC(CCCCCCCCCC(=O)*)(N(CC(=O)O)CC(=O)O)C1

Tests used:
[1] = parameters: method as in doi:10.1002/ejic.201201108; details: cited from earlier work
human CCK2 receptor = target: T1, human CCK2 receptor (Homo sapiens, UniProt P32239); test: Receptor binding affinity (IC50), displacement of 177Lu-labelled CP04 from CCK2+ cell membranes; details: radioligand 177Lu-labelled CP04, 1 h at 37 °C
T1 construct: expressed in transfected cells; host or cells: A431-309CCK2R (A431 cells transfected with CCK2R); membranes released by hypoosmotic lysis
T1 sequence (P32239 1-447): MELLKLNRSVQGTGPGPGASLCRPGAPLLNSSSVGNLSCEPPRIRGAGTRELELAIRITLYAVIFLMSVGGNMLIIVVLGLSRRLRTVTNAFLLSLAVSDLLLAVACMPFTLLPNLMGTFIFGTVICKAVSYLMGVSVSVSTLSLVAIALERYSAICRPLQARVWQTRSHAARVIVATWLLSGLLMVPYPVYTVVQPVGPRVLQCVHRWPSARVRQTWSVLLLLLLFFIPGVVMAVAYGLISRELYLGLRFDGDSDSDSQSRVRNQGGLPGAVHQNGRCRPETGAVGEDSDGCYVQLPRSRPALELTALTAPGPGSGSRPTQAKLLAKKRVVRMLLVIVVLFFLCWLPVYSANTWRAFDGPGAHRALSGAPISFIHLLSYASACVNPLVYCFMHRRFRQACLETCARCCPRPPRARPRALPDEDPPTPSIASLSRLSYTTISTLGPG
Protocol: A human transfected cell line was used with two different expression properties of the cholecystokinin (CCK) receptor: CCK2+ (A431-309CCK2R; receptor-positive cells) and CCK2− (A431-609; mock transfected control cells) cells.
In vitro binding affinities of AAZTA-MG were determined by using CCK2+ cell membranes and ^177Lu-labelled CP04 (a minigastrin analogue with high affinity to the CCK2 receptor) as radioligand incubated with increasing concentrations of the competitor. As competitor AAZTA-MG and [^natLu]- and [^natGa]-AAZTA-MG were used. The latter were prepared by incubating 10 μg AAZTA-MG with a tenfold molar excess of Lu-chloride in ascorbic acid buffer and 100 μl Ga-bromide in sodium acetate buffer for 10 min, respectively.
The 96-well plates (MulitScreen Filter Plates, HTS) were washed with 250 μL 10 mM TRIS buffered saline (pH 7.3). CCK2 cells were diluted in 20 mM HEPES buffer containing […] MgCl2—in this hypoosmotic solution the cells were cracked releasing free membranes.

| SMILES | Stability constant (logK) for Ga^3+ [1] | Stability constant (logK) for In^3+ [1] | further results |
| --- | --- | --- | --- |
| CC1(N(CC(=O)O)CC(=O)O)CN(CC(=O)O)CCN(CC(=O)O)C1 [AAZTA, 6-[Bis(carboxymethyl)amino]-1,4-bis(carboxymethyl)-6-methyl-1,4-diazepane] | 22.18 | 29.58 |  |
| CSCC[C@H](NC(=O)[C@H](Cc1c[nH]c2ccccc12)NC(=O)CNC(=O)[C@H](Cc1ccc(O)cc1)NC(=O)[C@H](C)NC(=O)[C@@H](CCC(=O)O)NC(=O)CCCCCCCCCC1(N(CC(=O)O)CC(=O)O)CN(CC(=O)O)CCN(CC(=O)O)C1)C(=O)N[C@@H](CC(=O)O)C(=O)N[C@@H](Cc1ccccc1)C(N)=O [AAZTA-MG, [AAZTA^0, D-Glu^1, desGlu^2–6]-minigastrin] (X1-[dE]AYGWMDF-NH2) |  |  | IC50 (human CCK2 receptor): 10 nM |
| CSCC[C@H](NC(=O)[C@H](Cc1c[nH]c2ccccc12)NC(=O)CNC(=O)[C@H](Cc1ccc(O)cc1)NC(=O)[C@H](C)NC(=O)[C@@H](CCC(=O)O)NC(=O)CCCCCCCCCC1(N(CC(=O)O)CC(=O)O)CN(CC(=O)O)CCN(CC(=O)O)C1)C(=O)N[C@@H](CC(=O)O)C(=O)N[C@@H](Cc1ccccc1)C(N)=O [[^natGa]AAZTA-MG, metal not drawn] (X1-[dE]AYGWMDF-NH2) |  |  | IC50 (human CCK2 receptor; listed as [^natGa]-AAZTA-MG): 8.18 ± 3.16 nM |
| CSCC[C@H](NC(=O)[C@H](Cc1c[nH]c2ccccc12)NC(=O)CNC(=O)[C@H](Cc1ccc(O)cc1)NC(=O)[C@H](C)NC(=O)[C@@H](CCC(=O)O)NC(=O)CCCCCCCCCC1(N(CC(=O)O)CC(=O)O)CN(CC(=O)O)CCN(CC(=O)O)C1)C(=O)N[C@@H](CC(=O)O)C(=O)N[C@@H](Cc1ccccc1)C(N)=O [[^natLu]AAZTA-MG, metal not drawn] (X1-[dE]AYGWMDF-NH2) |  |  | IC50 (human CCK2 receptor; listed as [^natLu]): 9.44 ± 4.57 nM |
| O=C(O)CN1CCN(CC(=O)O)CCN(CC(=O)O)CCN(CC(=O)O)CC1 [^68Ga-DOTA, 1,4,7,10-tetraazacyclododecane-1,4,7,10-tetraacetic acid, metal not drawn] | 21.3 | 23.9 |  |
